The values below come from PubChem BioAssay (NCI).

Assay in all cases: NCI tumour cell line growth inhibition, 48 h
For assay [1], the system named is MOLT-4 leukemia.
For assay [2], the system named is SF-295 CNS.
The test system of assay [3] is LOX IMVI melanoma.
Assay [4] has as its system U251 CNS.
Assay [5] concerns HCT-116 colon.
In assay [6] the test system is SNB-75 CNS.
The subject of assay [7] is ACHN renal.
Assay [8] has as its system NCI/ADR-RES ovarian.
The test system of assay [9] is HS 578T breast.
Assay [10] concerns DU-145 prostate.

Several values for one entry are separate records, joined by “and”; a condition that tells them apart may be missing. Identical values can stand only once.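 Step 1: Grow cells in 96-well plates. Step 2: Expose to compound for 48 hours at 5 concentrations. Step 3: Interpolate endpoints linearly; if unreached, use highest concentration. The concentration for 50% growth inhibition is given as GI50. TGI marks complete inhibition of growth.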 Where only a bound is given, the exact number is not on record here.

As to `NC(N)NCCCc1cn2c(n1)C1CCCN1C(=O)C2Cc1ccccc1` (configuration not stated), the TGI in assay [1], in [2], in [3], in assay [4], in [5] and in assay [6] was > 100 µM in each case. The TGI in assay [7] was > 100 µM.

`O=C(O)c1ccc(N(/C=C/C(=O)C(F)(F)F)Cc2ccc(Cl)cc2)cc1`: the GI50 is 23 µM in assay [8]; 34.8 µM in [1]; 26.4 µM in [9]; 26.6 µM in [2]; 21.4 µM in assay [3]; 26.2 µM in [4]. The GI50 in assay [5] was 20.5 µM; in assay [10] it was 22.4 µM; in [7], 24.4 µM. For the same compound, the TGI in [8] was 68.4 µM; in [1] it was > 100 µM; in assay [9] it was 84.7 µM; in assay [2], 67 µM; in assay [3], 51.8 µM; in [4], 86.7 µM. Besides, the values for the TGI in assay [5], in assay [10] and in assay [7] were 54.8 µM, 62.1 µM and 66 µM, respectively.

For the compound `O=C([CH-]C(=O)c1ccccc1)c1ccccc1.O=C([CH-]C(=O)c1ccccc1)c1ccccc1.O=C([CH-]C(=O)c1ccccc1)c1ccccc1.[Ga+3]`, the GI50 in [1] was 13.3 µM; in [2], 38.7 µM; in assay [3], 18 µM; in assay [4], 23.3 µM; in [5], 23.4 µM; in [6], 64.7 µM. For the same compound, the GI50 in assay [7] is 59 µM. Further, the TGI in assay [1], in assay [2], in assay [3], in assay [4], in assay [5] and in assay [6] was > 100 µM throughout. Besides, in assay [7], the TGI is > 100 µM.

Regarding `CC(=O)OC(C)(C)C1CC[C@]2(C)/C=C/C(C)C[C@@H](O)/C=C(\C)CC(O)C12` (some centres not stated), the TGI in assay [1], in [2], in [3], in [4], in assay [5] and in assay [6] was > 100 µM each time. Further, the TGI in assay [7] is > 100 µM.

Turning to `O=C(CCc1n[nH]c(=S)o1)Nc1cc(Cl)ccc1Cl`, the TGI in assay [1] was > 100 µM; in [2], > 100 µM; in [4], > 100 µM; in assay [5] it was 30.8 µM; in assay [6] it was > 100 µM; in [7], > 100 µM.

As for `COc1ccc(C(=O)C(C(=O)CCC(=O)Nc2ccc(Cl)c(Cl)c2)c2ccc(OC)cc2)cc1` (configuration not stated), the TGI in assay [1], in assay [2], in [3], in assay [4], in assay [5] and in assay [6] was > 100 µM throughout. Further, in assay [7], the TGI was > 100 µM.

In the case of `O=C(/C=C/c1ccccc1)NC1C=Nc2ccc([N+](=O)[O-])cc2NC1=O` (configuration not stated), the TGI in assay [1], in assay [2], in assay [3], in assay [4], in assay [5] and in [6] was > 100 µM in each case. Besides, in assay [7], the TGI was > 100 µM.

In the case of `CC[C@@]1(OP(=O)(O)O)C(=O)OCc2c1cc1n(c2=O)Cc2cc3ccccc3nc2-1`, the TGI in assay [8] is 0.715 µM; in assay [1], 0.147 µM and 0.395 µM; in assay [2], 0.866 µM and 1.97 µM; in assay [3], 0.585 µM; in assay [4] it was 0.747 µM; in assay [5], 1.51 µM. Also, the TGI in assay [10] was 0.598 µM; in assay [6], 3.31 µM and 17.3 µM; in assay [7] it was 0.853 µM and 0.26 µM. Also, the GI50 is 0.0249 µM in assay [2], 0.143 µM in [6] and 0.0243 µM in assay [7].

For the compound `CC(C)(CN1CCCCC1)C(=O)/C=C/c1ccccc1`, the TGI in assay [1] worked out at 41.4 µM; in assay [2], 35.1 µM; in assay [3] it was 41.3 µM; in assay [4], 57 µM; in [5] it was 28.6 µM; in assay [6], 39.3 µM. In [7], this compound came in with a TGI of 96.6 µM.

Turning to `C/C(CN1C(=O)c2ccccc2C1=O)=N\NS(=O)(=O)c1ccc2ccccc2c1`, the TGI in [1], in assay [2], in assay [3], in [4], in assay [5] and in assay [6] was > 100 µM in each case. In assay [7], the TGI is > 100 µM.

As for `O=C1C2C3CC4C5C3C1C5C1(SCCS1)C42` (configuration not stated), the TGI in assay [1], in [4], in [5], in assay [6] and in [7] was > 100 µM in each case.

Take `COc1ccc(C2COc3c(ccc(OC)c3OC)C2=O)cc1OC` (configuration not stated): the TGI in assay [1], in assay [2], in assay [3], in [4], in assay [5] and in [6] was > 100 µM in each case. The TGI in [7] is > 100 µM.

For the compound `NS(=O)(=O)c1ccc(N(/C=C/C(=O)C(F)(F)F)CC(=O)c2ccc(F)cc2)cc1`, the GI50 in [8] is 18.2 µM; in assay [1], 20 µM; in assay [2], 26.4 µM; in [3], 13.8 µM; in assay [4] it was 18.4 µM; in [5] it was 22.5 µM. For the same compound, the GI50 in assay [10] was 20.6 µM; in [7], 21.3 µM. For the same compound, the TGI in assay [8] is 41.6 µM; in assay [1], 72.5 µM; in assay [2] it was 85.7 µM; in [3], 34.6 µM; in [4] it was 48.9 µM; in assay [5], > 100 µM. The figures for the TGI in assay [10] and in assay [7] were 52.2 µM and 67.1 µM, respectively.

For `COc1nc(NC2OC(COC(C)=O)C(OC(C)=O)C(OC(C)=O)C2OC(C)=O)c(N=CC=Nc2c(NC3OC(COC(C)=O)C(OC(C)=O)C(OC(C)=O)C3OC(C)=O)nc(OC)[nH]c2=O)c(=O)[nH]1` (configuration not stated), the TGI in [1], in assay [2], in assay [3], in assay [4], in [5] and in assay [6] was > 100 µM in each case. Further, in [7], the TGI was > 100 µM.
